Laboratory results taken from patent US20250313574A1, “SIALIC ACID DERIVATIVES AND METHODS OF USING SAME” (EISAI R&D MANAGEMENT CO., LTD., priority 2022, published 2025).
Values joined by “and” are separate entries in the source; they are usually repeats but may differ in a detail not shown here. Equal entries are not always repeated. Where two headings read alike, the source gives them in different places. Each block holds one compound with its values, some of them ahead of it.

What was measured:
[1] = rcm bond, Hoveyda-Grubbs II/quinone, toluene
[2] = molecular target: Recombinant human CD33 protein (Homo sapiens (Human), UniProt P20138); assay: CD33 competitive binding assay for HTS drug screen (fluorescent multivalent sialic acid probe)
Method in brief: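 Inhibition was read as reduced retention of a fluorescent multivalent sialic acid complex (final 5 μM neutravidin, 15 μM A-375, 5 μM biotin-4-FITC) on plate-immobilized human CD33. Compound was added first, the probe followed for 30 min at room temperature in PBS with 0.2% Tween-20 and 0.5% BSA, and FITC was measured after a wash.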

[3] = molecular target: recombinant human CD33 (Siglec-3, sialic acid binding Ig-like lectin 3) protein (Homo sapiens (Human), UniProt P20138); assay: Differential Scanning Fluorimetry (DSF, Protein Thermal Shift Assay); conditions: 50 μM of A-001; CD33 alone melts at approximately 55° C.
Procedure: FIG. 1 depicts thermograms (A) and derivative curves (B) of His-CD33 (gray) and His-CD33 with A-001 (blue).
Differential Scanning Fluorimetry (also known as DSF, Protein Thermal Shift Assay, Thermofluor Assay) was used to measure and compare the thermal melt or thermal denaturation temperature of recombinant human CD33 (Siglec-3, sialic acid binding Ig-like lectin 3) protein in the presence of 50 μM of A-001. In the absence of any compound, the CD33 protein has a thermal melt at approximately 55° C. under the method conditions described in this report.

[4] = molecular target: Recombinant Human Siglec-3/CD33 protein (His-CD33) (Homo sapiens (Human), UniProt P20138); assay: Differential scanning fluorimetry (DSF) thermal shift assay; type: binding
Chain of Recombinant Human Siglec-3/CD33 protein (His-CD33) (P20138 18-259): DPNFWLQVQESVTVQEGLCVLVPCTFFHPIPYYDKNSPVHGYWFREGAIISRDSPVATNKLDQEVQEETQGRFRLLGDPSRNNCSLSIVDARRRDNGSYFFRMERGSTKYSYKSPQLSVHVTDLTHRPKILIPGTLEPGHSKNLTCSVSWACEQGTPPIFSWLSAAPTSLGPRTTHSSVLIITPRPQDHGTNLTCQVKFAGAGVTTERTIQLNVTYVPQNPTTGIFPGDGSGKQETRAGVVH

Chain of recombinant human CD33 (Siglec-3, sialic acid binding Ig-like lectin 3) protein (P20138 18-259): as above
Chain of Recombinant human CD33 protein (P20138 18-259): as above

Compound: COC(=O)[C@]12CC=CCOC[C@@H](NC(=O)C3CCCOC3)COCCOc3c(C)cc(cc3C)C(=O)NC[C@@H](OC(C)=O)[C@@H](OC(C)=O)[C@H](O1)[C@H](NC(=O)OC(C)(C)C)[C@@H](OC(C)=O)C2 (some centres unmarked)
ring closure, isolated yield ([1]; from C=CCOC[C@H](COCCOc1c(C)cc(C(=O)NC[C@@H](OC(C)=O)[C@@H](OC(C)=O)[C@@H]2O[C@@](CC=C)(C(=O)OC)C[C@H](OC(C)=O)[C@H]2NC(=O)OC(C)(C)C)cc1C)NC(=O)C1CCCOC1, 24-membered ring, 1.05 mM, 80.0 °C, 3.0 h): 60%

Compound: COC(=O)[C@]12CC=CCOC[C@@H](NC(=O)OC(C)(C)C)COCCCOc3c(C)cc(cc3C)C(=O)NC[C@@H](OC(C)=O)[C@@H](OC(C)=O)[C@H](O1)[C@H](NC(C)=O)[C@@H](OC(C)=O)C2
ring closure, isolated yield ([1]; from C=CCOC[C@H](COCCCOc1c(C)cc(C(=O)NC[C@@H](OC(C)=O)[C@@H](OC(C)=O)[C@@H]2O[C@@](CC=C)(C(=O)OC)C[C@H](OC(C)=O)[C@H]2NC(C)=O)cc1C)NC(=O)OC(C)(C)C, 25-membered ring, 1.12 mM, 100.0 °C, 3.0 h): 84%

Compound: COC(=O)[C@]12CC=Cc3cccc(c3)[C@@H](NC(=O)C3CCCOC3)CCCCOc3c(C)cc(cc3C)C(=O)NC[C@@H](OC(C)=O)[C@@H](OC(C)=O)[C@H](O1)[C@H](NC(=O)OC(C)(C)C)[C@@H](OC(C)=O)C2 (some centres unmarked)
ring closure, isolated yield ([1]; from C=CC[C@]1(C(=O)OC)C[C@H](OC(C)=O)[C@@H](NC(=O)OC(C)(C)C)[C@H]([C@H](OC(C)=O)[C@@H](CNC(=O)c2cc(C)c(OCCCC[C@H](NC(=O)C3CCCOC3)c3cccc(C=C)c3)c(C)c2)OC(C)=O)O1, 24-membered ring, 1.02 mM, 80.0 °C, 1.0 h): 29%

Compound: COC(=O)[C@]12CC=Cc3cccc(c3)[C@@H](NC(=O)C3CCCOC3)CCCCc3cc(cc(Cl)c3OC(C)=O)C(=O)NC[C@@H](OC(C)=O)[C@@H](OC(C)=O)[C@H](O1)[C@H](NC(=O)OC(C)(C)C)[C@@H](OC(C)=O)C2 (some centres unmarked)
ring closure, isolated yield ([1]; from C=CC[C@]1(C(=O)OC)C[C@H](OC(C)=O)[C@@H](NC(=O)OC(C)(C)C)[C@H]([C@H](OC(C)=O)[C@@H](CNC(=O)c2cc(Cl)c(OC(C)=O)c(CCCC[C@H](NC(=O)C3CCCOC3)c3cccc(C=C)c3)c2)OC(C)=O)O1, 22-membered ring, 1.3 mM, 88.0 °C, 0.5 h): 57%
ring closure, isolated yield ([1]; from C=CC[C@]1(C(=O)OC)C[C@H](OC(C)=O)[C@@H](NC(=O)OC(C)(C)C)[C@H]([C@H](OC(C)=O)[C@@H](CNC(=O)c2cc(Cl)c(OC(C)=O)c(CCCC[C@H](NC(=O)C3CCCOC3)c3cccc(C=C)c3)c2)OC(C)=O)O1, 1.3 mM, 88.0 °C, 0.5 h): 16%

EC50 [2]: 15 nM
increase in thermal melt (dTm D) of CD33 protein [3]: 12.2±0.7 °C
ΔTm D (° C.) ([4]; 50 μM compound, 0.5 μM CD33 protein, pH 7.4, individual determinations): 11.9 °C and 12.9 °C
ΔTm at 50 µM ([4]; 50 μM compound, 0.5 μM CD33 protein, pH 7.4, individual determinations, read-out: ΔTm D (° C.)): 12.2 °C
ΔTm at 50 µM ([4]; 50 μM compound, 0.5 μM CD33 protein, pH 7.4, read-out: Median ΔTm D (° C.)): 12.2 ± 0.7 °C
DSF (dTmD) ([4]; thermal melt shift of 0.5 μM CD33 protein with 50 μM compound): 12.9
Compound: CC(=O)N[C@H]1[C@H]([C@H](O)[C@H](O)CNC(=O)c2cc(C)c(O)c(C)c2)O[C@@](CCN2CCOC[C@@]23CCN(C(=O)OC(C)(C)C)C3)(C(=O)O)C[C@@H]1O [A-001]
